In patent US20250144187A1, “COMBINATION OF HYDROLASES AND ANTI-MICROORGANISM DRUGS AND USES THEREOF” (CENTRE FOR EYE AND VISION RESEARCH LIMITED, priority 2023, published 2025):
Values joined by “and” are separate entries in the source; they are usually repeats but may differ in a detail not shown here. Equal entries are not always repeated.

Assays:
MRSA [1] = test: Check board broth micro-dilution assay, cefdinir with lysozyme; type: cell-based, Staphylococcus aureus; conditions: for effect of LTA/WTA synthesis inhibitor on cefdinir/lysozyme combination (FICI): inhibitor added into bacterial suspension
Protocol: 2) Check board broth micro-dilution assays. According to standard two-fold dilution method [Sun H et al., Nat Commun 11, 5263 (2020)], cefdinir at different concentration was added into fresh LB medium (or trypticase soy broth medium with 5% defibrinated horse blood) containing different concentration of human lysozyme in 96-wells plate. After well mixed, about 20 μl of 1.0×10^7 CFU/ml logarithmic cultures of MRSA, MRSE, Streptococcus pyogenes (S. py), Streptococcus mutans (S. mu), Enterococcus faecium (E. faecium), Enterococcus faecalis (E. faecalis) and Corynebacterium pseudodiphtheriticum (C. ps) were added into each well of the plate und co-incubated overnight, Wells without any drugs served as growth controls, and wells without bacteria served as background controls. The inhibition ratio was calculated as [1−(ODsample−ODbackground)/(ODcontrol−ODbackground)]×100%. Besides, bacterial growth inhibition was also monitored by serial dilution in LB-agar plate. CFU was counted by performing 10-fold serial dilution in PBS and then spotting 10 μl of dilutions in LB-agar plate. The MIC was determined as the lowest concentration of a drug that could inhibit the […] growth of microorganism by both visual CFU and OD600 using a microtiter plate reader. Fractional inhibitory concentration (FIC) and fractional inhibitory concentration index (FICI) values were determined by standard method. Briefly, FICI=MICAB/MICA+MICBA/MICB=FICA+FICB. […] Thus, there would be a series of FICI values. In most of Cases the lowest one among these values was listed to reflect the best achieving degree of combination therapy. In terms of the lowest FICI, FICI≤0.5, 0.5<FICI<1 or FICI≥1, would indicate the combination has synergy, part synergy or non-synergy effects, respectively.

MRSA [2] = test: Mutation frequency and prevention concentration analysis, auranofin/lysozyme; type: cell-based, Staphylococcus aureus
Description: 5) Mutation frequency and prevention concentration analysis.

MRSA biofilm = test: Biofilm crystal violet assay, auranofin/lysozyme; type: cell-based, Staphylococcus aureus
Protocol: 3) Biofilm assays According to described previously method [K. R. V. Thappeta et al., (2020) ACS infect Dis 6: 1228-1237], biofilm inhibition was assessed by using an adherence assay on 96-well tissue culture plates. Briefly, bacterial suspensions (1×10^6 (CFU/ml) were exposed to 0.34 μg/ml auranofin in LB medium in the absence and presence of 0.5 mg/ml lysozyme. LB medium with or without bacteria served as […] control group, respectively. After overnight incubation at 37° C. bacterial suspensions were removed, and the wells were gently washed twice with sterile PBS to remove exclusively non-adherent bacteria. The adherent biofilms were fixed by using 95% methanol at 60° C. for 15 minutes. Then, biofilms were stained with 1% crystal violet (100 μl/well) at 37° C. for 15 minutes, followed by gently washing with PBS to remove redundant crystal violet. Finally, the dye was solubilized with 150 μl of 95% ethanol per well at 37° C. for 30 minutes. The optical density of solution in each well was measured at 590 nm using a micro-plate reader. Herein, strong biofilm, weak biofilm and no biofilm wen defined as “ODsample≥2 ODnegative control”, “ODnegative control<ODsample<2 ODnegative control” and “ODsample≤ODnegative control”, respectively. All assays were performed in triplicate.

MRSA [3] = test: Time-killing curves, auranofin/lysozyme; type: cell-based, Staphylococcus aureus; conditions: for inhibition effect on growth of MRSA at exponential phase: drug alone: 0.34 μg/ml auranofin or 0.5 mg/ml lysozyme
Protocol: 2) Time-killing curves According to standard method [K. R. V. Thappeta et al., (2020) ACS Infect Dis 6: 1228-1237], over-night cultured MRSA was diluted and aliquoted into new sterile tubes at 1:1000 ratio. Then, the bacterial suspension was co-cultured with […] auranofin, 0.5 mg/ml lysozyme or their combination at 37° C. with shaking at 200 rpm. Similar bacterial suspension without any additions served as control group. Then, 20 μl of each culture was extracted at time intervals of […] and 22 hours to determine CFUs by spotting 10 μl of 10-fold dilution on the LB agar plates and incubating at 37° C. for 24 hours prior to enumeration. All assays were performed in triplicate.

MRSA in ARPE-19 cells = test: Cell-based infection model, auranofin/lysozyme; conditions: ≥0.34 μg/ml auranofin combined with 0.5 mg/ml lysozyme
ARPE-19 cells = test: Toxicity analysis of auranofin by CCK-8 kit; type: cell-based, human; conditions: uninfected cells
Description: FIG. 10: Toxicity analysis of auranofin on ARPE-19 cells by using CCK-8 kit.

MRSA [4] = test: Resistance development study (serial passages), auranofin/lysozyme; type: cell-based, Staphylococcus aureus; conditions: combination with lysozyme compared with auranofin alone
Protocol: 4) Resistance development study. As described before [Y, Lau et al., (2020) Adv Sci 7:1902227]. MRSA at exponential phase was diluted (1:1000) into fresh LB medium containing different concentrations of auranofin, lysozyme or their combination. After 1 passage (24 hours) at 37° C., MIC of culture was determined by standard two-fold serial dilutions. Next, this culture with higher MIC was further diluted into similar LB medium but with higher concentrations of compounds for next passages. The process was repeated for 18 days. By analyzing initial MICs of auranofin or lysozyme, fold-changes in MI s of these compounds were calculated. Assays were performed in triplicate.

MRSA [5] = test: ATP level, auranofin/lysozyme; type: cell-based, Staphylococcus aureus; conditions: 0.5 mg/ml lysozyme and 0.34 μg/ml auranofin
Protocol: 8) ATP level. […] Those without any treatment served as control group. Alter 1 hour incubation at 37° C. all bacteria were collected and washed by cold PBS for 3 times. […] Then, 20 μl of each supernatant were added white 96-well plate pre-reactivated by 100 μl of ATP test solution (Beyotime) to perform luminometer measurement.

[6] = tested on: methicillin-resistant Staphylococcus aureus USA 300 (MRSA, ATCC-BAA1556); test: Check board broth micro-dilution assay, auranofin with human lysozyme; type: cell-based
Protocol: Then, about 5.0×10^5 colony-forming units (CFUs) of methicillin-resistant Staphylococcus aures (MRSA, USA300 strain) in log phase were added into each well for overnight culture. Bacterial growth inhibition was monitored by optical density at 600 nm (OD600) and colony units in serial dilution in LB agar plate. Well without any drug served as growth control, and well without bacteria served as background control. The inhibition ratio was calculated as […]. CFUs were counted by 10-fold serial dilution in phosphate buffered saline (PBS) and 10 μl of dilutions were spotted in LB agar plate. […] Briefly, FICI=MICAB/MICA+MICBA/MICB=FICA+FICB. […] Thus, there would be a series of FICI values. In most of cases, the lowest one among these values was listed to reflect the best achieving degree of combination therapy. In terms of the lowest FICI, FICI≤0.5, 0.5<FICI<1 or FICI≥1, would indicate whether the combination has synergy, part synergy or non-synergy effects, respectively. Besides, to better highlight the inhibition degree of bacterial growth in combination therapy or identify whether combination therapy has synergy effect, results might be shown by heat-maps or line-charts containing different FICI values, although they were performed by using same 2-fold dilution method. All assays were performed in triplicate.

MRSA [7] = test: TMT proteomics analysis and PRM validation, auranofin/lysozyme; conditions: auranofin + lysozyme combination vs lysozyme alone, 5 hours
MRSE [8] = test: Check board broth micro-dilution assay, cefdinir with lysozyme; type: cell-based, Staphylococcus epidermidis; conditions: lysozyme alone
Protocol: 2) Check board broth micro-dilution assays. According to standard two-fold dilution method [Sun H et al., Nat Commun 11, 5263 (2020)], cefdinir at different concentration was added into fresh LB medium (or trypticase soy broth medium with 5% defibrinated horse blood) containing different concentration of human lysozyme in 96-wells plate. After well mixed, about 20 μl of 1.0×10^7 CFU/ml logarithmic cultures of MRSA, MRSE, Streptococcus pyogenes (S. py), Streptococcus mutans (S. mu), Enterococcus faecium (E. faecium), Enterococcus faecalis (E. faecalis) and Corynebacterium pseudodiphtheriticum (C. ps) were added into each well of the plate und co-incubated overnight, Wells without any drugs served as growth controls, and wells without bacteria served as background controls. The inhibition ratio was calculated as [1−(ODsample−ODbackground)/(ODcontrol−ODbackground)]×100%. Besides, bacterial growth inhibition was also monitored by serial dilution in LB-agar plate. CFU was counted by performing 10-fold serial dilution in PBS and then spotting 10 μl of dilutions in LB-agar plate. The MIC was determined as the lowest concentration of a drug that could inhibit the […] growth of microorganism by both visual CFU and OD600 using a microtiter plate reader. Fractional inhibitory concentration (FIC) and fractional inhibitory concentration index (FICI) values were determined by standard method. […]

MRSA [9] = test: Check board broth micro-dilution assay, tedizolid phosphate with lysozyme; type: cell-based, Staphylococcus aureus
Protocol: (§1) 2) Check board broth micro-dilution assays. According to standard two-fold dilution method [Sun. H et al., Nat. Commun. 11, 5263 (2020) tedizolid phosphate at different concentrations were added into fresh LB medium (or trypticase soy troth medium with 5% defibrinated horse blood) containing different concentrations of human lysozyme in 96-well plate. Then, 20 μl of 1.0×10^7 CFU/ml logarithmic cultures of MRSA or MRSE were added into each well of the plate and co-incubated overnight. Drug-free LB medium in the absence or presence of bacteria served as background control and growth control group, respectively. […] Thus, there would be a series of FICI values. In most of cases, the lowest one among these values was listed to reflect the best achieving degree of combination therapy. In terms of the lowest FICI, FICI≤0.5, 0.5<FICI<1 or FICI≥1, would indicate the combination has synergy, part synergy or non-synergy effects, respectively.

MRSE [10] = test: as above; type: cell-based, Staphylococcus epidermis; conditions: lysozyme alone
Protocol: as §1

Compound: O=C(COC(=O)Cc1coc2ccc3ccccc3c12)Nc1nnc(-c2ccccc2)o1 [LtaS-IN-1]
- effect of LTA/WTA synthesis inhibitor on cefdinir/lysozyme combination (FICI) (MRSA [1]): abolish the combination effect

Compound: CCN(CC)c1nc2c(S(=O)(=O)c3ccc(Cl)cc3)nnn2c2cc(OC)c(OC)cc12 [Targocil]
- effect of LTA/WTA synthesis inhibitor on cefdinir/lysozyme combination (FICI) (MRSA [1]): abolish the combination effect

Compound: CC(=O)OC[C@H]1O[C@@H]([S-])[C@H](OC(C)=O)[C@@H](OC(C)=O)[C@@H]1OC(C)=O.CCP(CC)CC.[Au+] [auranofin, Auranofin]
- gene mutation frequency (MRSA [2]; 0.34 μg/ml auranofin + 2 mg/ml lysozyme): ≤ 1×10^−9
- gene mutation frequency (MRSA [2]; 0.34 μg/ml auranofin without lysozyme): ≥ 9×10^−6
- biofilm-based absorbance at 590 nm, pre-biofilm stage (MRSA biofilm; 0.34 μg/ml auranofin + 0.5 mg/ml lysozyme): biofilm had been absolutely removed
- biofilm-based absorbance at 590 nm, post-biofilm stage (MRSA biofilm; auranofin + lysozyme combination after biofilm had appeared): the decrease was not observed after biofilm had appeared
- bacterial load (MRSA [3]; 0.34 μg/ml auranofin + 0.5 mg/ml lysozyme, reduced from the level of 10^10): 10^5 CFU/ml
- inhibition effect on growth of MRSA at exponential phase (MRSA [3]): few inhibitions effect
- drop of bacterial load in infected ARPE-19 cells (MRSA in ARPE-19 cells): 10^2 fold
- bacterial load in infected ARPE-19 cells (MRSA in ARPE-19 cells; MOI 5): 10^5 CFU/ml
- IC50 of auranofin on ARPE-19 cells (ARPE-19 cells): 2.21±0.34 μg/ml
- development of auranofin resistance (MRSA [4]): did suppress the development of auranofin resistance
- ATP level (MRSA [5]): significantly reduced
- fractional inhibitory concentration index (FICI) ([6]; auranofin in combination with lysozyme): 0.266
- CopZ over-expression (MRSA [7]): 21 fold
- N-acetylmuramoyl-L-alanine amidase domain (Q2G222) overexpression (MRSA [7]): ~1.84 fold
- protein level of walR (Q7A8E1) (MRSA [7]): ~0.68 fold

Compound: lysozyme: Human lysozyme (C-type) supplied by Sigma-Aldrich; hydrolase used in combination with the drugs
- minimum inhibitory concentration (MIC) of human lysozyme (MRSE [8]): > 150 mg/mL
- minimum inhibitory concentration (MIC) of human lysozyme (MRSA [9]; lysozyme alone): > 150 mg/mL
- reduction of the MIC value of lysozyme (MRSA [9]; with tedizolid phosphate at ca. 0.19 μg/ml): 1200 fold
- MIC value of lysozyme (MRSA [9]; with tedizolid phosphate at ca. 0.19 μg/ml (0.4 μM, 0.004 MIC)): 0.1235 mg/mL
- minimum inhibitory concentration (MIC) of human lysozyme (MRSE [10]): > 150 mg/mL
- inhibition effect on growth of MRSA at exponential phase (MRSA [3]): few inhibitions effect
- minimum inhibitory concentration (MIC) of human lysozyme (MRSA [1]; lysozyme alone): > 150 mg/mL and 150 mg/mL
- drop of MIC value of lysozyme (MRSA [1]; with cefdinir at ca. 0.75 μg/ml): 1200 folds
- MIC value of lysozyme (MRSA [1]; with cefdinir at ca. 0.75 μg/ml (1.89 μM)): 0.125 mg/mL
- lysozyme level to which MRSA is sensitive (MIC) ([6]; 0.17 μg/ml auranofin used in combination): 1.0 mg/mL
- lysozyme level to which MRSA is sensitive (MIC) ([6]; lysozyme alone): ≥ 150 mg/mL
